The subject of this assay is pentosidine formation. The experiment in a line: Inhibitory activity on pentosidine formation, samples incubated with BSA and arabinose. Format: biochemical. Conditions: 5 mM drug; incubated with BSA and arabinose instead of patient plasma. How it is done: Plasma was collected from hemodialysis patients prior to dialysis with the patients' consent, and the plasma was filtered and sterilized. To the plasma (450 μL) was added solutions of TM-2002 in dimethylsulfoxide (50 μL) (final concentrations: 0.8, 2.0, and 5.0 mM), and the mixtures were incubated for 1 week at 37° C. The levels of the pentosidine formation were measured.
Pentosidine was measured as follows. To each sample (50 μL) after incubation was added an equal volume of 10% trichloroacetic acid, and the mixture was subsequently centrifuged at 5,000 g for 5 minutes. After the supernatant was removed, the pellet was washed with 5% trichloroacetic acid (300 μL). The pellet was dried under reduced pressure, and subsequently hydrolyzed in a 6N HCl solution (100 μL) under a nitrogen atmosphere for 16 hours at 110° C. To the acid hydrolysate was then added 5N NaOH (100 μL) and 0.5 M phosphate buffer (pH 7.4) (200 μL); the mixture was subsequently filtered through a micropore filter with 0.5 μm pores and diluted with PBS. The concentration of the released pentosidine was measured by reverse-phase HPLC using a fluorescence detector (RF-10A, Shimadzu Corporation) (Miyata, T. et al.; Proc. Natl. Acad. Sci. USA, Vol. 93, p. 2353-2358, 1996). The effluent was monitored at the excitation/emission wavelength of 335/385 nm. Synthetic pentosidine was used as the reference material. The detection limit of pentosidine was 0.1 pmol/mg protein.
(2) Other edaravone analogues (Compounds (1) or (2)) were investigated for their inhibitory activities on pentosidine formation in the same manner as in Section (1) above, except that the samples were incubated with BSA and arabinose instead of the patient plasma. In the tables, “-” means that the test was not conducted.

Each structure is given as a SMILES string.

`CC1=NN(c2ccccc2)C(=O)C1Sc1nc(-c2ccc(C)cc2)cs1` (centres unmarked) [compound 21, 5-methyl-2-phenyl-4-(4-p-toluyl-thiazol-2-ylsulfanyl)-2,4-dihydro-pyrazole-3-one]: the “Pentosidine Formation Ratio (%) at 5 mM Drug Concentration” value (shortened to “Pentosidine Formation Ratio (%)”) was 42.07%.

With `CC1=NN(c2ccc(F)cc2)C(=O)C1C(c1ccccc1O)c1c(C)nn(-c2ccc(F)cc2)c1O` (centres unmarked) [compound 22, 2-(4-fluoro-phenyl)-4-[[1-(4-fluoro-phenyl)-5-hydroxy-3-methyl-1H-pyrazol-4-yl]-(2-hydroxy-phenyl)-methyl]-5-methyl-2,4-dihydro-pyrazol-3-one], the “Pentosidine Formation Ratio (%)” value was found to be 2.9%.

Take `CC1=NN(c2ccccc2)C(=O)C1(O)S(=O)(=O)[O-].[Na+]` (centres unmarked) [compound 25, sodium 4-hydroxy-3-methyl-5-oxo-1-phenyl-4,5-dihydro-1H-pyrazole-4-sulfonate]: the “Pentosidine Formation Ratio (%)” value amounted to 38.80%.

As for `CC1=NN(c2ccccc2)C(=O)C1(N1CCOCC1)N1CCOCC1` [compound 26, 5-methyl-4,4-dimorpholine-4-yl-2-phenyl-2,4-dihydro-pyrazol-3-one], the “Pentosidine Formation Ratio (%)” value turned out to be 50.68%.

In the case of `O=C(NC1=NN(c2ccccc2)C(=O)C1(O)S(=O)(=O)[O-])c1ccccc1.[Na+]` (centres unmarked) [compound 27, Sodium 3-benzoylamino-4-hydroxy-5-oxo-1-phenyl-4,5-dihydro-1H-pyrazole-4-sulfonate], the “Pentosidine Formation Ratio (%)” value is on record as 2.83%.

Take `CC1=NN(c2ccccc2)C(=O)C12Sc1ccccc1C2=O` (centres unmarked) [compound 28]: the “Pentosidine Formation Ratio (%)” value amounted to 22.83%.

Turning to `CC1=NN(c2ccccc2)C(=O)C12C(c1ccccc1)C21C(=O)N(c2ccccc2)N=C1C` (centres unmarked) [compound 30, 4,10-dimethyl-2,8,11-triphenyl-2,3,8,9-tetraza-dispiro[4.0.4.1]undeca-3,9-diene-1,7-dione], the “Pentosidine Formation Ratio (%)” value is listed as 62.43%.

Turning to `CC1=NN(c2ccccc2Cl)C(=O)/C1=C/c1ccc(O)c(OCO)c1` [compound 31], the “Pentosidine Formation Ratio (%)” value is reported as 15.57%.

Take `CC1=NN(c2ccccc2Cl)C(=O)/C1=C/c1ccc(N(C)C)cc1` [compound 32, 2-(2-chloro-phenyl)-4-(4-dimethylamino-benzylidene)-5-methyl-2,4-dihydro-pyrazol-3-one]: the “Pentosidine Formation Ratio (%)” value is on record as 8.7%.

`CC1=NN(c2cccc(C(F)(F)F)c2)C(=O)/C1=C/C=C/c1ccccc1` [compound 33]: the “Pentosidine Formation Ratio (%)” value is listed as 80.08%.

As to `CC1=NN(c2cccc(F)c2)C(=O)/C1=C\c1ccc(N(C)C)cc1` [compound 35, 4-(4-dimethylamino-benzylidene)-2-(3-fluoro-phenyl)-5-methyl-2,4-dihydro-pyrazol-3-one], the “Pentosidine Formation Ratio (%)” value worked out at 76.31%.

For `CC1=NN(c2cccc(C(=O)O)c2)C(=O)/C1=C\c1ccc(N2CCC(Cl)=N2)cc1` [compound 36, 3-{4-[4-(3-chloro-4,5-dihydro-pyrazol-1-yl)-benzylidene]-3-methyl-5-oxo-4,5-dihydro-pyrazol-1-yl}-benzoic acid], the “Pentosidine Formation Ratio (%)” value is 26.37%.

For the compound `O=C(O)c1cccc(N2N=C(c3ccccc3)/C(=C/c3ccccc3O)C2=O)c1` [compound 37], the “Pentosidine Formation Ratio (%)” value is recorded as 0.02%.

Take `CC1=NN(c2cccc(Cl)c2)C(=O)/C1=C/c1cc2ccccc2[nH]c1=O` [compound 38, 3-[1-(3-chloro-phenyl)-3-methyl-5-oxo-1,5-dihydro-pyrazol-4-ylidenemethyl]-1H-quinolin-2-one]: the “Pentosidine Formation Ratio (%)” value was found to be 84.95%.

Take `COC(=O)c1cccc(-c2ccc(/C=C3\C(=O)N(c4ccc(S(C)(=O)=O)cc4)N=C3C)o2)c1` [compound 39]: the “Pentosidine Formation Ratio (%)” value is 16.87%.

Turning to `COC(=O)c1ccc(N2N=C(C)/C(=C/c3ccc4c(c3)OCO4)C2=O)cc1` [compound 40, 4-(4-benzo[1,3]dioxol-5-ylmethylene-3-methyl-5-oxo-4,5-dihydro-pyrazol-1-yl)-benzoic acid methyl ester], the “Pentosidine Formation Ratio (%)” value worked out at 32.37%.

On to `COC(=O)c1ccc(N2N=C(C)/C(=C/c3ccc(-c4ccc(S(N)(=O)=O)cc4)o3)C2=O)cc1` [compound 41, 4-{3-methyl-5-oxo-4-[5-(4-sulfamoyl-phenyl)-furan-2-ylmethylene]-4,5-dihydro-pyrazol-1-yl}-benzoic acid methyl ester], for which the “Pentosidine Formation Ratio (%)” value is reported as 37.81%.

Regarding `CC1=NN(c2ccc(Cl)cc2)C(=O)/C1=C/c1ccc(O)cc1O` [compound 42, 2-(4-chloro-phenyl)-4-(2,4-dihydroxy-benzylidene)-5-methyl-2,4-dihydro-pyrazol-3-one], the “Pentosidine Formation Ratio (%)” value came out at 68.32%.

With `CC1=NN(c2ccc(Cl)cc2)C(=O)/C1=C/c1cccc(O)c1` [compound 43, 2-(4-chloro-phenyl)-4-(3-hydroxy-benzylidene)-5-methyl-2,4-dihydropyrazol-3-one], the “Pentosidine Formation Ratio (%)” value came out at 3.00%.

As to `CC1=NN(c2ccc(C)cc2)C(=O)/C1=C/c1ccc(O)c(O)c1` [compound 44, 4-(3,4-dihydroxy-benzylidene)-5-methyl-2-p-toluyl-2,4-dihydro-pyrazol-3-one], the “Pentosidine Formation Ratio (%)” value is 66.19%.

As for `CC(=O)c1ccc(N2N=C(C)/C(=C3\C(=O)Nc4ccccc43)C2=O)cc1` [compound 45, 3-[1-(4-acetyl-phenyl)-3-methyl-5-oxo-1,5-dihydro-pyrazol-4-ylidene]-1,3-dihydro-indol-2-one], the “Pentosidine Formation Ratio (%)” value amounted to 19.22%.

As to `CC1=NN(c2ccc(F)cc2)C(=O)/C1=C\c1c(C)nn(-c2ccccc2C)c1O` [compound 46, 2-(4-fluoro-phenyl)-4-(5-hydroxy-3-methyl-1-o-toluyl-1H-pyrazol-4-ylmethylene)-5-methyl-2,4-dihydro-pyrazol-3-one], the “Pentosidine Formation Ratio (%)” value was found to be 15.69%.

For the compound `COc1cc(/C=C2\C(=O)N(c3ccc(Cl)cc3)N=C2C(F)(F)F)ccc1O` [compound 47, 2-(4-chloro-phenyl)-4-(4-hydroxy-3-methoxy-benzylidene)-5-trifluoromethyl-2,4-dihydro-pyrazol-3-one], the “Pentosidine Formation Ratio (%)” value was 28.86%.

On to `CCc1ccc(N2N=C(C)/C(=C\c3ccc(O)cc3)C2=O)cc1` [compound 48, 2-(4-ethyl-phenyl)-4-(4-hydroxy-benzylidene)-5-methyl-2,4-dihydro-pyrazol-3-one], for which the “Pentosidine Formation Ratio (%)” value amounted to 0.02%.

For `CC1=NN(c2ccc(S(N)(=O)=O)cc2)C(=O)/C1=C/c1ccc(O)cc1` [compound 49, 4-[4-(4-hydroxy-benzylidene)-3-methyl-5-oxo-4,5-dihydro-pyrazol-1-yl]-benzenesulfonamide], the “Pentosidine Formation Ratio (%)” value was 7.09%.

With `CCOC(=O)c1ccc(N2N=C(C(F)(F)F)/C(=C/c3cccs3)C2=O)cc1` [compound 50, 4-(5-oxo-4-thiophen-2-ylmethylene-3-trifluoromethyl-4,5-dihydro-pyrazol-1-yl)-benzoic acid ethyl ester], the “Pentosidine Formation Ratio (%)” value came out at 63.17%.

The values above are taken from US20120065198A2, “Detection and Treatment of Schizophrenia” (Tokai University Educational System, priority 2007, published 2012).
